We go through 18 compounds from patent US12344623B2, “Thiazolopyridine derivatives as adenosine receptor antagonists” (Merck Patent GmbH, priority 2019, dated 2025).

Where two headings read alike, the source gives them in different places.

Common to all, as to assay type: cell-based
In one test the target is human A2A receptor (Homo sapiens, UniProt P29274). Put plainly: Functional A2A receptor activity, recombinant HEK293 cells, cAMP (HTRF), agonist NECA. Details: expressed in transfected cells; host or cells: HEK293. Conditions: read-out: Functional A2A receptor activity, HEK293, cAMP, IC50. The procedure: (§1) The functional activities of human A2A, A2B, A1 and A3 receptors were determined by quantification of cAMP, being the second messenger for adenosine receptors.
(§2) Cells were seeded into 384-well plates, forskolin, test compounds and agonists (CPA for A1- and IB-MECA for A3-receptor) were added. After 30 min incubation, HTRF reagents (cAMP dynamic 2, Cis Bio) were added and the cellular cAMP levels were determined using the ENVISION (Perkin Elmer) plate reader. Obtained raw data were normalized against the inhibitor control and the neural control (DMSO) and the normalized data were fitted using GeneData software.
A general note: TR-FRET usually uses a lanthanide donor and a delayed reading to cut background.

Another test deals with T1, human A2B receptor (Homo sapiens, UniProt P29275).
T1 construct: expressed in transfected cells; host or cells: HEK293
T1 sequence (P29275 1-332): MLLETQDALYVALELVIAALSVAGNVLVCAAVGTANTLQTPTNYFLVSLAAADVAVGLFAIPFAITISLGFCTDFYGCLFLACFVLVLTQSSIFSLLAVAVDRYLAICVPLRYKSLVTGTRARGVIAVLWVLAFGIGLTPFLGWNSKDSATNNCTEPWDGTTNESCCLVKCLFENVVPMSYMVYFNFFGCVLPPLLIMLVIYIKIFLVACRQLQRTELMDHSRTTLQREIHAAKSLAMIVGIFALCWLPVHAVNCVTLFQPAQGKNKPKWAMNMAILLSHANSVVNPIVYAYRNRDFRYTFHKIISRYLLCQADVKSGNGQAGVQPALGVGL
Put plainly: Functional A2B receptor activity, recombinant HEK293 cells, cAMP (HTRF), agonist NECA. Particulars: read-out: Functional A2B receptor activity, HEK293, cAMP, IC50. How it is done: as §1, §2

For another test, the target named is T2, human A3 receptor (Homo sapiens, UniProt P0DMS8).
T2 construct: expressed in transfected cells; host or cells: CHO
T2 sequence (P0DMS8 1-318): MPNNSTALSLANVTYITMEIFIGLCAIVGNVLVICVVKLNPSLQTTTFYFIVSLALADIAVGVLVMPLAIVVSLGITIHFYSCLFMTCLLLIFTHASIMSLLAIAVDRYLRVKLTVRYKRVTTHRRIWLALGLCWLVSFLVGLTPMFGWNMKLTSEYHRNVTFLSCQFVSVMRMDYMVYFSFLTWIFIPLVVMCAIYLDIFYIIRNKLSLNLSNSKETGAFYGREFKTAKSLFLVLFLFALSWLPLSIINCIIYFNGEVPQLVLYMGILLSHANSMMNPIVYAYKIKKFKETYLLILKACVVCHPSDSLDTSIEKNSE
Description: Functional A3 receptor activity, recombinant CHO cells, cAMP (HTRF), forskolin, agonist IB-MECA. Particulars: recombinant CHO cells, forskolin, agonist IB-MECA, read-out: Functional A3 receptor activity, CHO, cAMP, IC50. How it is done: as §1
(§3) For human A1 and A3 receptors, recombinant CHO cells, expressing either A1 or A3-receptor, were used. As both receptors couple to Gi proteins, the assay protocol was adapted:
as §2

In the next test the target is T3, human A1 receptor (Homo sapiens, UniProt P30542).
T3 construct: expressed in transfected cells; host or cells: CHO
T3 sequence (P30542 1-326): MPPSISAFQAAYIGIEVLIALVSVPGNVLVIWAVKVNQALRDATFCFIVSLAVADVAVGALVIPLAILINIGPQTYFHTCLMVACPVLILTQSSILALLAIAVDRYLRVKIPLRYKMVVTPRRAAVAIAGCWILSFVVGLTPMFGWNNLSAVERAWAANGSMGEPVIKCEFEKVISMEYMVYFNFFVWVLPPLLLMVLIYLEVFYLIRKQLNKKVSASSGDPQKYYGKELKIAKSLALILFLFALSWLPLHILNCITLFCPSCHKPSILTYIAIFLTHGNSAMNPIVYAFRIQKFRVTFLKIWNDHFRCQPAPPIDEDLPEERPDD
Put plainly: Functional A1 receptor activity, recombinant CHO cells, cAMP (HTRF), forskolin, agonist CPA. Particulars: recombinant CHO cells, forskolin, agonist CPA; read-out: Functional A1 receptor activity, CHO, cAMP, IC50. How it is done:
as §1, §3, §2

Sequence of human A2A receptor (P29274 whole entry): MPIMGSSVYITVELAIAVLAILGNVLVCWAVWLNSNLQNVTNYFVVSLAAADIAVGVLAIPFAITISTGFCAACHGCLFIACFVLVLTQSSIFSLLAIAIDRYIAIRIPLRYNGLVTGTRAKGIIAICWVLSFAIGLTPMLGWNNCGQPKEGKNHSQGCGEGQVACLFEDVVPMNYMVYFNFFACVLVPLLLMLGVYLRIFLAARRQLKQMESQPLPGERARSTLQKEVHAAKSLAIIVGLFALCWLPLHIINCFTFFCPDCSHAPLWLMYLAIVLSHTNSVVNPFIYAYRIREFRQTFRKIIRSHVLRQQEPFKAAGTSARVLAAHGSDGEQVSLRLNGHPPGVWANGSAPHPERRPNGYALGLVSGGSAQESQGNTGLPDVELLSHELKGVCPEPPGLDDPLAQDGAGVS

As to `COc1ncc(-c2ccccc2)c2sc(NC(=O)c3cn[nH]c3)nc12` [Compound 117, N-{4-methoxy-7-phenyl-[1,3]thiazolo[4,5-c]pyridin-2-yl}-1H-pyrazole-4-carboxamide], the results for the IC50 on human A2A receptor, on human A2B receptor and at human A3 receptor were below 10 nM, below 10 nM and below 1000 nM, respectively.

As for `COc1nc(F)c(-c2ccc(F)cc2)c2sc(NC(=O)N3CCC(C)(O)CC3)nc12` [Compound 27, 4-Hydroxy-4-methyl-piperidine-1-carboxylic acid [6-fluoro-7-(4-fluoro-phenyl)-4-methoxy-thiazolo[4,5-c]pyridin-2-yl]-amide], the IC50 – broadly, the concentration needed to halve the response being measured – on human A2A receptor was below 10 nM; at human A2B receptor it was below 10 nM; on human A3 receptor it was above 1000 nM; at human A1 receptor, below 1000 nM.

Regarding `COc1ncc(-c2cnn(Cc3ccccc3)c2)c2sc(NC(=O)N3CCC4(CCOCC4)C3)nc12` [Compound 76, 8-Oxa-2-aza-spiro[4.5]decane-2-carboxylic acid [7-(1-benzyl-1H-pyrazol-4-yl)-4-methoxy-thiazolo[4,5-c]pyridin-2-yl]-amide], the IC50 was below 10 nM on human A2A receptor, below 10 nM at human A2B receptor, above 1000 nM on human A3 receptor and below 100 nM at human A1 receptor.

For the compound `COc1ncc(C2=CCOCC2)c2sc(NC(=O)c3ccc(C(=O)N4CCC(C)(O)CC4)cc3)nc12` [Compound 129, N-[7-(3,6-Dihydro-2H-pyran-4-yl)-4-methoxy-thiazolo[4,5-c]pyridin-2-yl]-4-(4-hydroxy-4-methyl-piperidine-1-carbonyl)-benzamide], the IC50 is below 10 nM at human A2A receptor, below 100 nM at human A2B receptor, above 1000 nM at human A3 receptor and below 1000 nM at human A1 receptor.

Regarding `COc1cnc(N2CCOCC2)c2sc(NC(=O)N3CCC4(CCN(C)C4=O)CC3)nc12` [drawing 186, reference compound], the IC50 at human A2A receptor is below 100 nM; at human A2B receptor, above 1000 nM; at human A3 receptor (cAMP), above 1000 nM.

For the compound `COc1ncc(-c2cccc(O)c2)c2sc(NC(=O)N3CCC4(CCOCC4)C3)nc12` [Compound 153, 8-Oxa-2-aza-spiro[4.5]decane-2-carboxylic acid [7-(3-hydroxy-phenyl)-4-methoxy-thiazolo[4,5-c]pyridin-2-yl]-amide], the IC50 was below 10 nM on human A2A receptor, below 10 nM on human A2B receptor, above 1000 nM at human A3 receptor and below 1000 nM on human A1 receptor.

Consider `COc1ncc(-c2ccccc2)c2sc(NC(=O)c3c[nH]cn3)nc12` [Compound 60, 1H-Imidazole-4-carboxylic acid (4-methoxy-7-phenyl-thiazolo[4,5-c]pyridin-2-yl)-amide], for which the IC50 on human A2A receptor is below 10 nM; at human A2B receptor it was below 10 nM; at human A3 receptor it was below 1000 nM; on human A1 receptor, below 1000 nM.

Regarding `COc1ncc(-c2cnn(Cc3cccnc3)c2)c2sc(NC(=O)c3ccc(C(=O)O)cc3)nc12` [Compound 115, 4-[(4-methoxy-7-{1-[(pyridin-3-yl)methyl]-1H-pyrazol-4-yl}-[1,3]thiazolo[4,5-c]pyridin-2-yl)carbamoyl]benzoic acid], the IC50 is below 10 nM on human A2A receptor, below 10 nM at human A2B receptor and below 1000 nM on human A3 receptor.

Turning to `COc1ncc(-c2cnn(C[C@@H]3CCCCO3)c2)c2sc(NC(=O)N3CCC4(CCOCC4)C3)nc12` [Compound 118, 8-Oxa-2-aza-spiro[4.5]decane-2-carboxylic acid (4-methoxy-7-{1-[(S)-1-(tetrahydro-pyran-2-yl)methyl]-1H-pyrazol-4-yl}-thiazolo[4,5-c]pyridin-2-yl)-amide], the values for the IC50 at human A2A receptor, at human A2B receptor and at human A3 receptor were below 10 nM, below 100 nM and above 1000 nM, respectively.

Turning to `COc1ncc(-c2cnn(C(C)(C)c3ccccc3)c2)c2sc(NC(=O)N3CCC4(CCOCC4)C3)nc12` [Compound 163, 8-Oxa-2-aza-spiro[4.5]decane-2-carboxylic acid {4-methoxy-7-[1-(1-methyl-1-phenyl-ethyl)-1H-pyrazol-4-yl]-thiazolo[4,5-c]pyridin-2-yl}-amide], the IC50 on human A2A receptor was below 10 nM; on human A2B receptor it was below 100 nM; at human A3 receptor, above 1000 nM.

For `COc1ncc(-c2cnn(C[C@@H]3CCCOC3)c2)c2sc(NC(=O)N3CCC4(CCOCC4)C3)nc12` [Compound 105, 8-Oxa-2-aza-spiro[4.5]decane-2-carboxylic acid (4-methoxy-7-{1-[(S)-1-(tetrahydro-pyran-3-yl)methyl]-1H-pyrazol-4-yl}-thiazolo[4,5-c]pyridin-2-yl)-amide], the IC50 was below 10 nM at human A2A receptor, below 100 nM at human A2B receptor and above 1000 nM on human A3 receptor.

Take `COC(=O)N(C)Cc1ccc(C(=O)Nc2nc3c(OC)ncc(C4=CCOCC4)c3s2)cc1` [Compound 167, {4-[7-(3,6-Dihydro-2H-pyran-4-yl)-4-methoxy-thiazolo[4,5-c]pyridin-2-ylcarbamoyl]-benzyl}-methyl-carbamic acid methyl ester]: the IC50 on human A2A receptor is below 10 nM; on human A2B receptor, below 10 nM; on human A3 receptor, above 1000 nM.

As to `COc1ncc(C2=CCOCC2)c2sc(NC(=O)c3ccc(C(=O)NCCN4CCC4)cc3)nc12` [Compound 139, N-(2-Azetidin-1-yl-ethyl)-N′-[7-(3,6-dihydro-2H-pyran-4-yl)-4-methoxy-thiazolo[4,5-c]pyridin-2-yl]-terephthalamide], the values for the IC50 at human A2A receptor, on human A2B receptor and at human A3 receptor were below 10 nM, below 100 nM and above 1000 nM, respectively.

On to `COc1ncc(C2=CCOCC2)c2sc(NC(=O)c3cn[nH]c3)nc12` [Compound 116, N-[7-(3,6-dihydro-2H-pyran-4-yl)-4-methoxy-[1,3]thiazolo[4,5-c]pyridin-2-yl]-1H-pyrazole-4-carboxamide], for which the IC50 on human A2A receptor was below 10 nM; at human A2B receptor, below 10 nM; on human A3 receptor, below 1000 nM.

Consider `COc1ncc(-c2cnn(C[C@H]3CCCCO3)c2)c2sc(NC(=O)N3CCC4(CCOCC4)C3)nc12` [Compound 119, 8-Oxa-2-aza-spiro[4.5]decane-2-carboxylic acid (4-methoxy-7-{1-[(R)-1-(tetrahydro-pyran-2-yl)methyl]-1H-pyrazol-4-yl}-thiazolo[4,5-c]pyridin-2-yl)-amide], for which the results for the IC50 at human A2A receptor, on human A2B receptor and at human A3 receptor were below 10 nM, below 100 nM and above 1000 nM, respectively.

As to `COc1ncc(C2=CCOCC2)c2sc(NC(=O)c3cnn(Cc4ncc[nH]4)c3)nc12` [Compound 158, 1-(1H-Imidazol-2-ylmethyl)-1H-pyrazole-4-carboxylic acid [7-(3,6-dihydro-2H-pyran-4-yl)-4-methoxy-thiazolo[4,5-c]pyridin-2-yl]-amide], the IC50 is below 10 nM on human A2A receptor, below 10 nM at human A2B receptor and above 1000 nM on human A3 receptor.

Regarding `COc1ncc(-c2cnn(C[C@H]3CCCOC3)c2)c2sc(NC(=O)N3CCC4(CCOCC4)C3)nc12` [Compound 104, 8-Oxa-2-aza-spiro[4.5]decane-2-carboxylic acid (4-methoxy-7-{1-[(R)-1-(tetrahydro-pyran-3-yl)methyl]-1H-pyrazol-4-yl}-thiazolo[4,5-c]pyridin-2-yl)-amide], the figures for the IC50 on human A2A receptor, at human A2B receptor and on human A3 receptor were below 10 nM, below 100 nM and above 1000 nM, respectively.

As for `COc1ncc(-c2cccc(NS(C)(=O)=O)c2)c2sc(NC(=O)N3CCC4(CCOCC4)C3)nc12` [Compound 120, 8-Oxa-2-aza-spiro[4.5]decane-2-carboxylic acid [7-(3-methanesulfonylamino-phenyl)-4-methoxy-thiazolo[4,5-c]pyridin-2-yl]-amide], the results for the 50% inhibitory concentration (IC50) on human A2A receptor, on human A3 receptor and at human A1 receptor were below 100 nM, above 1000 nM and above 1000 nM, respectively.
